In patent publication US9708336B2, “Metallo-beta-lactamase inhibitors” (priority 2014, dated 2017):
Like-named read-outs stand apart in the source and are kept apart here.

Experiments:
[1] = tested on: Escherichia coli expressing NDM-1 (CLB30016); test: Antibiotic potentiation activity: synergistic concentration (MITC95) with imipenem, OD600 growth; format: cell-based; details: for Escherichia coli expressing NDM-1 (CLB 30016) MITC95: concentration giving 95% inhibition of bacterial growth
Procedure, shortened: (§1)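 Clinical MBL-producing strains (E. coli NDM-1, S. marcescens IMP-1, K. pneumoniae VIM-1) from overnight plates were diluted 1:100 into 1.1×CAMHB. Compound was tested with imipenem at 4 μg/ml (optionally 1 μg/ml) or without it. After 22–24 h at 35 °C, growth was read as OD600.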

[2] = tested on: Klebsiella pneumoniae expressing VIM-1 (IHMA599644); test: as above; format: cell-based; details: for Klebsiella pneumoniae expressing VIM-1 (IHMA 599644) MITC95: concentration giving 95% inhibition of bacterial growth
Procedure, shortened: as §1

[3] = tested on: Serratia marcescens expressing IMP-1 (CL5741); test: as above; format: cell-based; details: for Serratia marcescens expressing IMP-1 (CL5741) MITC95: concentration giving 95% inhibition of bacterial growth
Procedure, shortened: as §1

VIM-1 = VIM-1 (Pseudomonas aeruginosa (strain ATCC 15692 / DSM 22644 / CIP 104116 / JCM 14847 / LMG 12228 / 1C / PRS 101 / PAO1), UniProt A0A0F7KYQ8); test: Enzyme activity: determination of IC50, fluorescence assay with CCF2-FA substrate (VIM-1); format: biochemical
NDM-1 = NDM-1 (Klebsiella pneumoniae, UniProt C7C422); test: biochemical; format: biochemical; details: read-out: NDM-1 IC50
Method: Enzyme Activity: Determination of IC50
The Class B enzyme activities were measured in the presence of the test inhibitor in a fluorescence assay against a commercially available substrate consisting of a cephalosporin core linking 7-hydroxycoumarin to fluorescein (CCF2-FA). The enzyme (NDM-1, IMP-1 or VIM-1) and the substrate were diluted in 100 mM KH2PO4 buffer (pH 7) containing 0.005% Tween-20 and 10 μM ZnSO4. […] The test inhibitor was dissolved in dimethylsulfoxide and diluted 1:50 in the assay, resulting in a final concentration range of 20 uM to 0.00063 uM. In a 384-well microplate, the test inhibitor was incubated with the metallo-β-lactamase enzyme and the substrate for 2 hours at 25° C. Fluorescence at 460 nm following excitation at 405 nm was measured. The IC50 value was determined from semi-logarithmic plots of enzyme inhibition versus inhibitor concentration, with a curve generated using a 4-parameter fit.

IMP-1 = IMP-1 (Serratia marcescens, UniProt P52699); test: biochemical; format: biochemical; details: read-out: IMP-1 IC50
[4] = fluorescence assay with CCF2-FA substrate, read-out: VIM-1 IC50
[5] = fluorescence assay with CCF2-FA substrate
[6] = (CLB30016, NDM-1), 95% growth inhibition
[7] = Klebsiella pneumoniae IHMA599644 (VIM-1), 95% growth inhibition
[8] = Serratia marcescens CL5741 (IMP-1), 95% growth inhibition
[9] = NDM-1 enzyme, CCF2-FA substrate
[10] = IMP-1 enzyme, CCF2-FA substrate
[11] = Escherichia coli expressing NDM-1 (CLB30016), 95% growth inhibition
[12] = Klebsiella pneumoniae expressing VIM-1 (IHMA599644), 95% growth inhibition
[13] = Serratia marcescens expressing IMP-1 (CL5741), 95% growth inhibition
[14] = VIM-1 enzyme, CCF2-FA fluorescence assay, read-out: VIM-1 IC50
[15] = NDM-1 enzyme, CCF2-FA fluorescence assay
[16] = IMP-1 enzyme, CCF2-FA fluorescence assay
[17] = VIM-1 enzyme, CCF2-FA substrate, read-out: VIM-1 IC50
[18] = CLB30016 (NDM-1), 95% inhibition of bacterial growth
[19] = IHMA599644 (VIM-1), 95% inhibition of bacterial growth
[20] = CL5741 (IMP-1), 95% inhibition of bacterial growth
[21] = VIM-1 IC50, fluorescence assay with CCF2-FA substrate

Chain of IMP-1 (P52699 whole entry, looked up): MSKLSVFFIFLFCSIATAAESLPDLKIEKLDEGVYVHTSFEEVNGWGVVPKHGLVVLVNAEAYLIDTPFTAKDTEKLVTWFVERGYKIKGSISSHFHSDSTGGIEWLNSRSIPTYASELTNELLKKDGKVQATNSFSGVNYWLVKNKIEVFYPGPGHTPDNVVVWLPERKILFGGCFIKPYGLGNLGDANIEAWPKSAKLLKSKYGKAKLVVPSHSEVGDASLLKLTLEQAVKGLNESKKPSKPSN
Chain of NDM-1 (C7C422 whole entry, looked up, species assumed): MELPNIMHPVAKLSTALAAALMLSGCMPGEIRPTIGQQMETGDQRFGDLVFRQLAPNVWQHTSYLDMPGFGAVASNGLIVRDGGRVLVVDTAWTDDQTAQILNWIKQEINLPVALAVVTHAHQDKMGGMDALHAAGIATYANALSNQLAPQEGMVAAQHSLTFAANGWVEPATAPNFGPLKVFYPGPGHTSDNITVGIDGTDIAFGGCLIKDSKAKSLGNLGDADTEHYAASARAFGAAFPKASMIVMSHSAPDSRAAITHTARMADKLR

SMILES	IC50 (VIM-1; [4])	IC50 (NDM-1; [5])	IC50 (IMP-1; [5])	Escherichia coli MITC95 [1, 11]	Klebsiella pneumoniae MITC95 [2, 12]	Serratia marcescens MITC95 [3, 13]	IC50 (VIM-1; [14])	IC50 (NDM-1; [15])	IC50 (IMP-1; [16])	further results
NS(=O)(=O)c1cccc(C2CC2)c1-c1nnn[nH]1 [Example 157, 3-cyclopropyl-2-(1H-tetrazol-5-yl)benzenesulfonamide]	1050 nM	28.7 nM	561 nM							Escherichia coli expressing NDM-1 (CLB 30016) MITC95 [1]: 0.3906 µM; Klebsiella pneumoniae expressing VIM-1 (IHMA 599644) MITC95 [2]: 50 µM; Serratia marcescens expressing IMP-1 (CL5741) MITC95 [3]: 6.25 µM
NS(=O)(=O)c1c(C(F)(F)F)ccc([C@H]2CC[C@H](NCC3CCCN3)CC2)c1-c1nnn[nH]1 (stereo partly drawn) [Example 681, 3-{4-[(pyrrolidin-2-ylmethyl)amino]cyclohex-yl}-2-(1H-tetrazol-5-yl)-6-(trifluoromethyl)benzene sulfonamide]										Escherichia coli MITC95 [1, 6]: 1.563 µM; Klebsiella pneumoniae MITC95 [2, 7]: 6.25 µM; Serratia marcescens MITC95 [3, 8]: 3.125 µM; IC50 (VIM-1; VIM-1 IC50, VIM-1 enzyme, CCF2-FA substrate): 7.1 nM; IC50 (NDM-1; [9]): 8.72 nM; IC50 (IMP-1; [10]): 16.1 nM
NS(=O)(=O)c1cccc(-c2ccc(CN3CCNC(=O)C3)cc2)c1-c1nnn[nH]1 [Example 386, 4′-[(3-oxopiperazin-1-yl)methyl]-2-(1H-tetrazol-5-yl)biphenyl-3-sulfonamide]				6.25 µM	>200 µM	1.563 µM	120 nM	3.23 nM	32 nM	
CNCC(C)NCc1ccc(-c2cccc(S(N)(=O)=O)c2-c2nn[nH]n2)cc1 (stereo not drawn) [Example 359, 4′-({[1-methyl-2-(methylamino)ethyl]amino}methyl)-2-(2H-tetrazol-5-yl)biphenyl-3-sulfonamide]				4.688 µM	>200 µM	3.125 µM	1870 nM	13 nM	104 nM	
Nc1nc2cc(-c3ccc(C(F)(F)F)c(S(N)(=O)=O)c3-c3nnn[nH]3)ccc2s1 [Example 550, 3-(2-amino-1,3-benzothiazol-5-yl)-2-(1H-tetrazol-5-yl)-6-(trifluoromethyl)benzenesulfonamide]										Escherichia coli MITC95 [1, 6]: 3.125 µM; Klebsiella pneumoniae MITC95 [2, 7]: 12.5 µM; Serratia marcescens MITC95 [3, 8]: 3.125 µM; IC50 (VIM-1; [17]): 0.315 nM; IC50 (NDM-1; [9]): 0.753 nM; IC50 (IMP-1; [10]): 2.52 nM
NS(=O)(=O)c1cccc(-c2ccc(CNCCn3ccnn3)cc2)c1-c1nnn[nH]1 [Example 350, 2-(1H-tetrazol-5-yl)-4′-({[2-(1H-1,2,3-triazol-1-yl)ethyl]amino}methyl)biphenyl-3-sulfonamide]				1.172 µM	>200 µM	1.563 µM	246 nM	5.8 nM	39.7 nM	
NS(=O)(=O)c1c(CC[C@H]2CC[C@@H](N)CC2)ccc(-c2ccc(C3CCNCC3)cc2)c1-c1nn[nH]n1 [Example 462, 4-(2-((1s,4r)-4-aminocyclohexyl)ethyl)-4′-(piperidin-4-yl)-2-(2H-tetrazol-5-yl)-[1,1′-biphenyl]-3-sulfonamide]				0.7813 µM	18.75 µM	1.563 µM	8.13 nM	3.8 nM	11.5 nM	
NS(=O)(=O)c1c(C(F)(F)F)ccc(-c2ccc(C3CN(C4CCNC4)C3)cc2)c1-c1nnn[nH]1 (stereo not drawn) [Example 801, 4′-(1-pyrrolidin-3-ylazetidin-3-yl)-2-(1H-tetrazol-5-yl)-4-(trifluoromethyl)biphenyl-3-sulfonamide]	9.45 nM	2.22 nM	2.8 nM							Escherichia coli MITC95 [1, 18]: 3.125 µM; Klebsiella pneumoniae MITC95 [2, 19]: 100 µM; Serratia marcescens MITC95 [3, 20]: 6.25 µM
CN(C)C1CCC(NCc2ccc(-c3cccc(S(N)(=O)=O)c3-c3nnn[nH]3)cc2)CC1 (stereo not drawn) [Example 355, 4′-({[4-(dimethylamino)cyclohexyl]amino}methyl)-2-(1H-tetrazol-5-yl)biphenyl-3-sulfonamide]				1.563 µM	150 µM	4.688 µM	869 nM	14 nM	467 nM	
NC1CCC(Cc2ccc(-c3ccnc4ccccc34)c(-c3nn[nH]n3)c2S(N)(=O)=O)CC1 (stereo not drawn) [Example 451, 6-(((1s,4s)-4-aminocyclohexyl)methyl)-3-(quinolin-4-yl)-2-(2H-tetrazol-5-yl)benzenesulfonamide]				1.563 µM	3.125 µM	3.125 µM	0.476 nM	0.977 nM	47.1 nM	
Nc1ncc(-c2ccc(-c3cccc4sc(N)nc34)c(-c3nn[nH]n3)c2S(N)(=O)=O)s1 [Example 536, 3-(2-Aminobenzo[d]thiazol-4-yl)-6-(2-aminothiazol-5-yl)-2-(2H-tetrazol-5-yl)benzenesulfonamide]										Escherichia coli MITC95 [1, 6]: 6.25 µM; Klebsiella pneumoniae MITC95 [2, 7]: 25 µM; Serratia marcescens MITC95 [3, 8]: 50 µM; IC50 (VIM-1; [17]): 4.12 nM; IC50 (NDM-1; [9]): 2.71 nM; IC50 (IMP-1; [10]): 39.4 nM
NS(=O)(=O)c1nccc(N2CCC(c3cccnc3)CC2)c1-c1nnn[nH]1 [Example 218, 4-(4-pyridin-3-ylpiperidin-1-yl)-3-(1H-tetrazol-5-yl)pyridine-2-sulfonamide]	106 nM	102 nM	484 nM							Escherichia coli expressing NDM-1 (CLB 30016) MITC95 [1]: 12.5 µM; Klebsiella pneumoniae expressing VIM-1 (IHMA 599644) MITC95 [2]: 100 µM; Serratia marcescens expressing IMP-1 (CL5741) MITC95 [3]: 25 µM
NC1(CN2CCC3(CCC(c4ccc(C(F)(F)F)c(S(N)(=O)=O)c4-c4nnn[nH]4)CC3)CC2)CC1 [Example 834, 3-[3-[(1-aminocyclopropyl)methyl]-3-azaspiro[5.5]undecan-9-yl]-2-(1H-tetrazol-5-yl)-6-(trifluoromethyl)benzenesulfonamide]	13.3 nM	1.49 nM	5.45 nM							Escherichia coli MITC95 [1, 18]: 6.25 µM; Klebsiella pneumoniae MITC95 [2, 19]: 50 µM; Serratia marcescens MITC95 [3, 20]: 6.25 µM
NC1CCC(c2cccc(S(N)(=O)=O)c2-c2nn[nH]n2)CC1 (stereo not drawn) [Example 168, 3-(4-Aminocyclohexyl)-2-(2H-tetrazol-5-yl)benzenesulfonamide]	50.3 nM	39.4 nM	865 nM							Escherichia coli expressing NDM-1 (CLB 30016) MITC95 [1]: 0.25 µM; Klebsiella pneumoniae expressing VIM-1 (IHMA 599644) MITC95 [2]: 2.172 µM; Serratia marcescens expressing IMP-1 (CL5741) MITC95 [3]: 6.25 µM
NC1(C2CCN(c3ccc(C(F)(F)F)c(S(N)(=O)=O)c3-c3nnn[nH]3)C2)CC1 (stereo not drawn) [Example 766, 3-[3-(1-aminocyclopropyl)pyrrolidin-1-yl]-2-(1H-tetrazol-5-yl)-6-(trifluoromethyl) benzenesulfonamide]		134 nM	120 nM							Escherichia coli MITC95 [1, 18]: 25 µM; Klebsiella pneumoniae MITC95 [2, 19]: 12.5 µM; Serratia marcescens MITC95 [3, 20]: 25 µM; IC50 (VIM-1; [21]): 8.52 nM
COc1cc(-c2cccc(S(N)(=O)=O)c2-c2nnn[nH]2)ccn1 [Example 135, 3-(2-methoxypyridin-4-yl)-2-(1H-tetrazol-5-yl)benzenesulfonamide]	61.9 nM	4.47 nM	62.6 nM							Escherichia coli expressing NDM-1 (CLB 30016) MITC95 [1]: 1.172 µM; Klebsiella pneumoniae expressing VIM-1 (IHMA 599644) MITC95 [2]: 18.75 µM; Serratia marcescens expressing IMP-1 (CL5741) MITC95 [3]: 1.172 µM
CC(C)(C)c1cccc(S(N)(=O)=O)c1-c1nnn[nH]1 [Example 161, 3-(tert-butyl)-2-(1H-tetrazol-5-yl)benzenesulfonamide]		20.1 nM	306 nM							Escherichia coli expressing NDM-1 (CLB 30016) MITC95 [1]: 1.563 µM; Klebsiella pneumoniae expressing VIM-1 (IHMA 599644) MITC95 [2]: 150 µM; Serratia marcescens expressing IMP-1 (CL5741) MITC95 [3]: 6.25 µM; IC50 (VIM-1; [21]): 874 nM
NS(=O)(=O)c1cccc(-c2ccc(CNCCO)cc2)c1-c1nnn[nH]1 [Example 390, 4′-{[(2-hydroxyethyl)amino]methyl}-2-(1H-tetrazol-5-yl)biphenyl-3-sulfonamide]				0.7813 µM	62.5 µM	6.25 µM	222 nM	12.2 nM	483 nM	
N=C(NC1CNC1)c1ccc(-c2ccc(C(F)(F)F)c(S(N)(=O)=O)c2-c2nn[nH]n2)cc1 [Example 563, N-(azetidin-3-yl)-3′-sulfamoyl-2′-(2H-tetrazol-5-yl)-4′-(trifluoromethyl)biphenyl-4-carboximidamide]										Escherichia coli MITC95 [1, 6]: 3.125 µM; Klebsiella pneumoniae MITC95 [2, 7]: 3.125 µM; Serratia marcescens MITC95 [3, 8]: 6.25 µM; IC50 (VIM-1; [17]): 5.02 nM; IC50 (NDM-1; [9]): 53.8 nM; IC50 (IMP-1; [10]): 45.9 nM
